# Reference: patent US5470877A, “Uses of perillic acid methyl ester” (Wisconsin Alumni Research Foundation, priority 1994, dated 1995)
# Experiments:
# 21-26 kDa proteins [1] = experiment: Protein isoprenylation inhibition in NIH3T3 cells (SDS-PAGE fluorography); format: cell-based, mouse; conditions: for isoprenylation of the 21-26-kDa bands, % of the control: NIH3T3, gel slicing and scintillation counting
# Method: "Isoprenylation" is the addition of a multiple of the 5 carbon isoprene unit to a protein. Our experiments in isoprenylation are reported at Crowell, et al. 1991, J. Biol. Chem. 266:17679-17685. To test whether a specific monoterpene affects isoprenylation of proteins in cells, […] were incubated with a radioactive isoprene precursor and 0-5 mM of the test monoterpene and then subjected to SDS-PAGE. Because they carried a radioactive label, isoprenylated proteins were visualized by fluorography. As a control, cells were incubated without the monoterpene.
# Cells were harvested after trypsin treatment, washed twice with phosphate-buffered saline, suspended in electrophoresis sample buffer (Laemmli, U.K., 1970, Nature 227:680-685), and either analyzed immediately or stored at -20° C. Whole cell extracts were analyzed by SDS-PAGE on 16-cm×18-cm×0.75-mm gels by the method of Laemmli (supra). The acrylamide concentrations were 5% for the stacking gel and 12% for the separating gel. Gels were stained with Coomassie Brilliant Blue, equilibrated for 20 min in Amplify (Amersham Corp.) fluorographic reagent, dried under vacuum at 65° C., and exposed to preflashed Kodak X-Omat AR film as described by Laskey and Mills (1975, Eur. J. Biochem, 56:335-341). Some fluorograms were analyzed further by densitometry. Where indicated, gels were sliced, dissolved at 50° C. for 3 hours in 0.5 ml of water+0.5 ml of Solvable (Amersham), and then analyzed by scintillation spectrometry in 10 ml of Atom light (Amersham) mixture. Protein content was measured by the method of Lowry, et al. (1951, J. Biol. Chem. 193:265-275).
# FIG. 1 depicts the structures of certain monoterpenes.
# The degree of isoprenylation was evaluated by the amount of labeled protein present in the 21-26 kDa range, as evidenced by fluorography.
# HT29 cells = experiment: Inhibition of HT29 colon adenocarcinoma cell growth/proliferation; format: cell-based, human; conditions: 1 = greatest inhibition, 5 = least inhibition
# Method: We examined the effect of several of the terpenes on certain types of cell growth. […] Additionally, growth of HT29 (human colon adenocarcinoma) cells was inhibited by 80% by 1 mM perillyl alcohol.
# [2] = system: DMBA-induced rat mammary carcinomas; experiment: Regression of DMBA-induced mammary carcinomas, pair-feeding study; format: in vivo, Wistar-Furth rat
# Method: We used Wistar-Furth female rats for in vivo studies. Wistar-Furth female rats were obtained from Harlan Sprague-Dawley, Inc., (Madison, Wis.). All rats, arriving at 43-48 days of age, were housed at four rats per cage in wire-bottom metal cages and all were maintained with a light/dark cycle of 12 hours. Rats were provided Teklad Lab blox chow and acidified water ad libitum.
# After one week of acclimation, the carcinogen DMBA was administered to the rats, which were 50-55 days old at this point. The DMBA was dissolved in a stock solution of 20 mg DMBA/ml sesame oil, heated and allowed to cool to room temperature before administration. DMBA (Eastman Kodak, Rochester, N.Y.) was given as a single gastric intubation of 50 mg DMBA/kg rat body weight.
# In the pair-feeding study, a group of 70 mammals was treated with DMBA. Beginning four weeks post carcinogen administration, mammals were weighed and palpated weekly. Upon palpation of the first mammary carcinoma (diameter≥3 mm), mammals were randomly assigned to control or 2.5% (w/w) perillyl alcohol diet and pair-fed.
# Perillyl alcohol (>96% pure by GC analysis, Aldrich, Milwaukee, Wis.) and Teklad 4% mouse/rat diet meal were thoroughly mixed and stored at -20° C. Fresh diets were made every 7-10 days. All mammals were provided fresh diet daily to minimize evaporation of the monoterpenes. For pair-feeding, the quantity of diet consumed by the monoterpene-fed mammals was measured every 24 hours and the assigned partner was pair-fed accordingly.
# In the pair-feeding study, all palpable mammary carcinomas were classified as either "primary" tumors (i.e, the first tumor(s) palpated with a minimum diameter of 3 mm) or "secondary" tumors (i.e. a palpable tumor arising after initial diet assignment). At diet assignment, some mammals had more than one primary tumor. All carcinogen-exposed mammals not bearing a first palpable tumor by week 15 post-carcinogen were removed from the experiment. Complete regression of a tumor was defined as non-palpability for a minimum of three consecutive weeks. All mammals in the pair-feeding study were followed for a minimum of 10 weeks post-diet assignment for tumor growth or regression at primary tumor sites and all other mammary glands. The rats were necropsied if moribund. Complete necropsies were performed on all rats at the termination of the study. Greater than 95% of tumors remaining at the autopsy date were diagnosed as mammary carcinomas based on gross and histopathological criteria.
# [3] = Plasma metabolite identification and quantitation in rats; format: in vivo, Wistar-Furth rat; conditions: rat, in vivo
# Method: Control animals received oil alone. At the chosen time points, rats were anesthetized with ether and blood was collected into heparinized tubes (Heparin (Sigma, Grade II), at 20 mg/ml in 0.9% saline). Plasma was removed following centrifugation and stored at -20° C.
# For quantitation of chronic plasma metabolite levels of perillyl alcohol, female WF rats were housed individually and fed fresh diet daily. The afternoon before blood collection, all rats were given approximately 20 grams of the appropriate diet and allowed to eat ad. libitum for 18 hours. Food consumption data was determined the next morning and the rats were bled within 2 hours following food removal.
# Briefly, 5 μl of a 10 mM solution of perillaldehyde was added to 50 μl plasma as an internal standard for quantitation. The plasma was mixed with an equal volume of n-butanol:acetonitrile (1:1, v/v), after which another volume of saturated potassium phosphate was added. After vortexing, the samples were centrifuged and the organic layer removed from the top.
# Plasma extracts were analyzed using a Hewlett-Packard 5891 gas chromatograph equipped with a flame-ionization detector or a Hewlett-Packard 5890 chromatograph equipped with a 5971A mass-selective detector, both with 30 m Supelco SPB-5 columns. The temperature program was 90° C. for 4 minutes, increasing by 10° C./minute, followed by 15 minutes at 275° C. The split ratio was 1:10 and the linear velocity was 1.1 ml/minute. Standard curves were generated by adding 5 μl rat plasma. Standards were then extracted and analyzed by capillary gas chromatography. The ratio of the terpene peak area/perillaldehyde peak area versus the concentration of terpene in the sample was plotted.
# [4] = in vivo
# Method: Subjects: The subjects were five females and two males, median age of 32 years (range 23-55) and without illness or laboratory abnormalities.
# The custard consisted of dry unflavored custard mix, cold water, cold whole milk, and orange oil. The components were blended at room temperature and then refrigerated for at least 30 minutes prior to ingestion by the subjects. Subjects ingested the orange oil-containing mixture over 2-10 minutes. […] The chemistry panel consisted of: BUN, creatinine, calcium, magnesium, phosphorous, uric acid, total cholesterol, total protein, albumin, total bilirubin, y-glutamyl transpeptidase, alkaline phosphatase, aspartate aminotransferase, and lactate dehydrogenase. Subjects were monitored for toxicity for one week.
# [5] = rat, in vivo; cited from earlier work
# [6] = in vivo; cited from earlier work
# [7] = Chemistry panel and toxicity monitoring in human subjects; conditions: 100 mg/kg d-limonene
# Method: The custard consisted of dry unflavored custard mix, cold water, cold whole milk, and orange oil. The components were blended at room temperature and then refrigerated for at least 30 minutes prior to ingestion by the subjects. Subjects ingested the orange oil-containing mixture over 2-10 minutes. […] One subject had additional blood draws for metabolite analysis at 1, 2, and 8 h post-ingestion. The chemistry panel consisted of: BUN, creatinine, calcium, magnesium, phosphorous, uric acid, total cholesterol, total protein, albumin, total bilirubin, y-glutamyl transpeptidase, alkaline phosphatase, aspartate aminotransferase, and lactate dehydrogenase. Subjects were monitored for toxicity for one week.
# 21-26 kDa proteins [8] = experiment: Protein isoprenylation inhibition in M600B human mammary epithelial cells
# Method: To test whether a specific monoterpene affects isoprenylation of proteins in cells, cell extracts were incubated with a radioactive isoprene precursor and 0-5 mM of the test monoterpene and then subjected to SDS-PAGE. Because they carried a radioactive label, isoprenylated proteins were visualized by fluorography. As a control, cells were incubated without the monoterpene.
# For both isoprenylation and cell growth assays, the monoterpenes were mixed with prewarmed (37° C.) medium containing 10% calf serum, and then the monoterpene-containing medium was added to cells. The relative effects of various monoterpenes on protein isoprenylation were compared by comparison of the relative intensity of bands on fluorograms from [^14 C]-mevalonate-labelled cells treated with each monoterpene.
# Samples from each cell line were then analyzed on the same gel.
# [9] = 10% limonene diet or 2.5% POH diet
smiles,measurement,setting,value
C=C(C)[C@H]1CC=C(C)CC1 [limonene],"isoprenylation of the 21-26-kDa bands, % of the control",21-26 kDa proteins [1]; 0.5 mM limonene,~ 50 % of the control
same,"intensity of the 66-, 46-, and 17-kDa bands",21-26 kDa proteins [1]; 0.5 mM or 5 mM limonene,not different from that of the control
same,"isoprenylation of the 21-26-kDa bands, % of the control",21-26 kDa proteins [1]; 5 mM limonene,~ 25 % of the control
same,"Rank order, inhibition of HT-29 tumor cell proliferation",HT29 cells,5
same,Primary carcinoma complete regression (tumors regressed / tumors),[2]; [9],19/28
same,Primary carcinoma regression (%),[2]; [9],68%
same,Secondary carcinoma regression (%),[2]; [9],63%
same,Secondary carcinoma regression (tumors regressed / tumors),[2]; [9],17/27
same,Secondary carcinomas/rat,[2]; [9],1.08
same,development of secondary carcinomas,[2]; after initial diet assignment,number of secondary carcinomas was higher in the limonene-fed mammals
same,Time to Regress (wks),"[2]; primary carcinoma, footnote: Kaplan-Meier estimate of time when 25% regressed",3.25 wks
same,mM DHPAME,[3],trace
same,metabolism at 4 hours,[3],equal amounts of perillic and dihydroperillic acid
same,parent in plasma at 24 hours,[3],no limonene was detectable in the plasma
same,time parent found in plasma,[3],up to 4 hours
same,Total,[3]; 30240 min,0.19 mM
same,mM DHPA,[3]; 30240 min,0.06 ± 0.01 mM
same,mM DHPAME,[3]; 30240 min,0.01 ± 0.00 mM
same,mM LIM/POH,[3]; 30240 min,0 mM
same,mM PA,[3]; 30240 min,0.10 ± 0.02 mM
same,mM PAME,[3]; 30240 min,0.02 ± 0.01 mM
same,Total,[3]; 50400 min,0.28 mM
same,mM DHPA,[3]; 50400 min,0.09 ± 0.02 mM
same,mM DHPAME,[3]; 50400 min,0.01 ± 0.00 mM
same,mM LIM/POH,[3]; 50400 min,0 mM
same,mM PA,[3]; 50400 min,0.14 ± 0.03 mM
same,mM PAME,[3]; 50400 min,0.04 ± 0.01 mM
same,Total,[3]; 100800 min,0.27 mM
same,mM DHPA,[3]; 100800 min,0.12 ± 0.01 mM
same,mM LIM/POH,[3]; 100800 min,0 mM
same,mM PA,[3]; 100800 min,0.13 ± 0.01 mM
same,mM PAME,[3]; 100800 min,0.02 ± 0.00 mM
same,concentration,"[3]; po, 1000 mg/kg, 4 h",90 ± 20 µM
same,time of highest metabolite concentrations,[4]; human,4 h
same,identity of abundant human metabolite H2,[4],"limonene-1,2-diol"
same,metabolite concentrations at 24 h (8 h in one subject),[4],lower than those at the 4 h time point
same,time of highest concentrations of limonene-derived material,[5],2 to 12 h
same,side-effects,[6],not without some side-effects
same,gradeable toxicity,[7],No gradeable toxicity was encountered
same,intensity of the 21-26 kDa bands,21-26 kDa proteins [8]; 5 mM limonene,marked decrease
same,concentration required for significant inhibition of protein isoprenylation,21-26 kDa proteins [8]; dose responsive,at least 1 mM
